Reference: US9359372B2, “Hexahydrodibenzo[a,g]quinolizine compound, preparation method thereof, pharmaceutical composition and use thereof” (SHANGHAI INSTITUTE OF MATERIA MEDICA, CHINESE ACADEMY OF …, priority 2011, dated 2016)
Where “and” joins values, the source holds several entries; their conditions need not be identical. Identical values can stand only once.

What was measured:
dopamine D1 receptor = dopamine D1 receptor (Macaca mulatta (Rhesus macaque), UniProt O77680); assay: Affinity on dopamine D1 receptor, competition with [3H] SCH23390; assay type: binding; parameters: D1 receptor inhibition ratio (%): concentration or dose not given beside the values
Protocol: (§1) (1). Determination of the Affinity of Hexahydrodibenzo[a,g]Quinolizine Compound of General Formula I and Derivatives Thereof on Dopamine D1, Dopamine D2, 5-HT1A, and 5-HT2A Receptor.
(§2) 1) The Experimental Method
(§3) Different concentrations (10^−5 M-10^−11 M) of the compound of the invention and corresponding isotope receptor ligand as well as receptor protein were loaded into the reaction tube and incubated in 30° C. water bath for 60 minutes. The reaction was terminated in a refrigerator. The reaction mixture was put in a Millipore filter (millipore) cell sample collector, filtered through suction filtration using GF/C glass fiber filter paper, and dried. The resulting sample was placed into 0.5 mL tube. 500 μL liquid scintillation fluid was added and intensity of radioactivity was determined by counting.
(§4) (1) Construction of receptor and materials for cell culture: Escherichia coli. DH5α strain; insect virus transfer vector pVL1393 plasmid; BaculoGold linear Chinese baculovirus DNA, purchased from ParMingen company; mkD1RcDNA; rD2R cDNA; various restriction endonucleases, TaqDNA polymerase, T4 ligase, etc., LB medium; insect cell culture TNM-FH.
(§5) (2) the Experimental Materials for Receptor Binding
(§6) Firstly, the above […] are dissolved in DMSO and then diluted with double distilled water to the appropriate concentration (10^−5 M-10^−11 M).
(§7) (+) Butaclamo purchased from RBI company, GF/C glass fiber filter paper purchased from Whatman Co., scintillation fluid (dopamine D1, D2 receptors)/liposoluble scintillation fluid (5-HT1A, 5-HT2A receptor), Beckman LS-6500 multi-function liquid scintillation counter.

D2 dopamine receptor = D2 dopamine receptor (Rattus norvegicus (Rat), UniProt P61169); assay: Affinity on dopamine D2 receptor, competition with [3H] Spiperone; assay type: binding; parameters: D2 receptor inhibition ratio (%): concentration or dose not given beside the values
Protocol: as §1, §2, §3, §4, §5, §6, §7

[1] = In vivo pharmacokinetic experiment of rats (gavage and intravenous); parameters: species or system SD rats; conditions: rat
Protocol: Pharmacokinetic properties of Compound DC037029 in rats were preliminarily studied in this experiment. After the tested compound was delivered to rats by intravenous administration and intragastric administration, respectively, the whole blood samples were collected at different time point and the plasma was separated. The concentration of compound in plasma was determined by liquid chromatography-tandem mass spectrometry.
Six healthy male SD rats with the weight of 200-220 g were randomly divided into 2 groups, each of which has three rats. The rats in each group were administrated with the tested compound by gavage or intravenous injection, respectively.
The compound was dissolved in 10% DMSO/10% Tween/[…].
The rats are fasted for 12 h and can drink water ad libitum before test. 2 h after dosing, the rats ate all together. The time point for collecting blood samples and the sample processing are listed as follows.
Intragastric administration time: 0.25, 0.5, 1.0, 2.0, 3.0, 5.0, 7.0, 9.0 and 24 h after administration.
Intravenous administration time: 5 min, 0.25, 0.5, 1.0, 2.0, 3.0, 5.0, 7.0, 9.0 and 24 h after administration. At above time point, 0.3 ml venous blood was taken from retrobulbar venous plexus of the rat and loaded into heparinization tube. After centrifuged at 1000 rpm for 5 min, the plasma was separated and frozen at −20° C. in a refrigerator.

[2] = gavage 20 mg/kg, individual animals
[3] = intravenous injection 10 mg/kg, average
[4] = intravenous injection 10 mg/kg, individual animals

Chain of dopamine D1 receptor (O77680 whole entry): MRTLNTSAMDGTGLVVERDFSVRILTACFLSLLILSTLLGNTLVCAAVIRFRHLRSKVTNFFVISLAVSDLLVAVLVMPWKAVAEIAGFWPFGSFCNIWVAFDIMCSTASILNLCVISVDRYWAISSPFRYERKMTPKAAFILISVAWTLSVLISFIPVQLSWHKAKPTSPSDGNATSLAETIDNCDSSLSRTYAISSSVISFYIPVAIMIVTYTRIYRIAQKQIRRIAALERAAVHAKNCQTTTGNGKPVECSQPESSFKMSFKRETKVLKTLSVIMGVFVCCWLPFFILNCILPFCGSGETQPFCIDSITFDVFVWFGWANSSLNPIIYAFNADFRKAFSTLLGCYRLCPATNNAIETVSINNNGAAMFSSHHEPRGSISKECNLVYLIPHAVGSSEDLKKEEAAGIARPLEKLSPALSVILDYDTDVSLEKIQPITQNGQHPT
Chain of D2 dopamine receptor (P61169 whole entry): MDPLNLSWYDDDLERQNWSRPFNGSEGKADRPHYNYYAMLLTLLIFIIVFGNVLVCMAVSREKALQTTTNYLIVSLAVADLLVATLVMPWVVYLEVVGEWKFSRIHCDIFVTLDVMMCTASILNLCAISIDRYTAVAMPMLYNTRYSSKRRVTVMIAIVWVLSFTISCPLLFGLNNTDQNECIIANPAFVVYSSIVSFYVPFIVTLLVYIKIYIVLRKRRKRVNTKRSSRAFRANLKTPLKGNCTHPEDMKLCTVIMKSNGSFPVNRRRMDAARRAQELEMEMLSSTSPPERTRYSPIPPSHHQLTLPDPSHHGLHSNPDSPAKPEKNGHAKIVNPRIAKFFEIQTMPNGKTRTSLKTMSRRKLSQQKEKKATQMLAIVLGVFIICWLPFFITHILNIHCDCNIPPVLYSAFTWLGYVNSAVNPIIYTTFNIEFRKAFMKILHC

COc1cc2c(cc1OC)CN1CCc3cc(OC)c(OC)cc3C1C2 (racemic) [DC037001, (±)-2,3,10,11-tetramethoxy-5,8,13,13a-tetrahydro-6H-dibenzo[a,g]quinolizine]
D1 receptor inhibition ratio (%) (dopamine D1 receptor): 58.95% | D2 receptor inhibition ratio (%) (D2 dopamine receptor): 14.7%

COc1cc2c(cc1OC)C1Cc3cc(OC)c(OC)c(OC)c3CN1CC2 (racemic) [DC037002, (±)-2,3,9,10,11-pentamethoxyl-5,8,13,13a-tetrahydro-6H-dibenzo[a,g]quinolizine]
D1 receptor inhibition ratio (%) (dopamine D1 receptor): 77.95% | D2 receptor inhibition ratio (%) (D2 dopamine receptor): 27.05%

COc1ccc2c(c1)CCN1Cc3c(cc(OC)c(OC)c3OC)CC21 (racemic) [DC037007, (±)-3,9,10,11-tetramethoxy-5,8,13,13a-tetrahydro-6H-dibenzo[a,g]quinolizine]
D1 receptor inhibition ratio (%) (dopamine D1 receptor): 87.65% | IC50 (dopamine D1 receptor): 2.03 µM | Ki (dopamine D1 receptor): 1 µM | D2 receptor inhibition ratio (%) (D2 dopamine receptor): 49.05%

COc1ccc2c(c1)CCN1Cc3cc(OC)c(OC)cc3CC21 (racemic) [DC037009, (±)-3,10,11-trimethoxy-5,8,13,13a-tetrahydro-6H-dibenzo[a,g]quinolizine]
D1 receptor inhibition ratio (%) (dopamine D1 receptor): −13.6% | D2 receptor inhibition ratio (%) (D2 dopamine receptor): 0.35%

COc1cc2c(cc1OC)C1Cc3cc4c(cc3CN1CC2)OCO4 (racemic) [DC037014, (±)-2,3-bimethoxy-10,11-methylenedioxy-5,8,13,13a-tetrahydro-6H-dibenzo[a,g]quinolizine]
D1 receptor inhibition ratio (%) (dopamine D1 receptor): 58.2% | D2 receptor inhibition ratio (%) (D2 dopamine receptor): 25.8%

COc1cc2c(cc1OC)CN1CCc3cc4c(cc3C1C2)OCO4 (racemic) [DC037021, (±)-2,3-methylenedioxy-10,11-bimethoxy-5,8,13,13a-tetrahydro-6H-dibenzo[a,g]quinolizine]
D1 receptor inhibition ratio (%) (dopamine D1 receptor): 56.5% | D2 receptor inhibition ratio (%) (D2 dopamine receptor): 44.5%

COc1cc2c(cc1OC)C1Cc3cc(O)c(O)cc3CN1CC2 (racemic) [DC037022, (±)-2,3-bimethoxy-10,11-bihydroxy-5,8,13,13a-tetrahydro-6H-dibenzo[a,g]quinolizine]
D1 receptor inhibition ratio (%) (dopamine D1 receptor): 89.0% | IC50 (dopamine D1 receptor): 1.01 µM | Ki (dopamine D1 receptor): 0.498 µM | D2 receptor inhibition ratio (%) (D2 dopamine receptor): 10.6%

COc1cc2c(cc1OC)[C@@H]1Cc3cc(OC)c(OC)c(OC)c3CN1CC2 [DC037006, S-(−)-2,3,9,10,11-pentamethoxyl-5,8,13,13a-tetrahydro-6H-dibenzo[a,g]quinolizine]
D1 receptor inhibition ratio (%) (dopamine D1 receptor): 91.75% | IC50 (dopamine D1 receptor): 0.648 µM | Ki (dopamine D1 receptor): 0.32 µM | D2 receptor inhibition ratio (%) (D2 dopamine receptor): 48.0%

COc1ccc(OC)c2c1C[C@H]1c3cc4c(cc3CCN1C2)OCO4 [DC037013, S-(−)-2,3-methylenedioxy-9,12-bimethoxy-5,8,13,13a-tetrahydro-6H-dibenzo[a,g]quinolizine]
IC50 (dopamine D1 receptor): 0.0479 µM | Ki (dopamine D1 receptor): 0.0236 µM

COc1cc2c(cc1O)[C@@H]1Cc3cc4c(cc3CN1CC2)OCO4 [DC037029, S-(−)-2-hydroxy-3-methoxy-10,12-methylenedioxy-5,8,13,13a-tetrahydro-6H-dibenzo[a,g]quinolizine]
IC50 (dopamine D1 receptor): 0.00819 µM | Ki (dopamine D1 receptor): 0.0042 µM | affinity on dopamine D1 receptor (in words) (dopamine D1 receptor; summary of the tables): strong affinity | F (absolute bioavailability) ([1]; gavage 20 mg/kg): 34.2% | Plasma concentration ([1]; gavage 20 mg/kg, 0.25 h, average): 392 ng/mL | Plasma concentration ([1]; gavage 20 mg/kg, 0.25 h, individual animals): 268 ng/mL and 416 ng/mL and 493 ng/mL | Plasma concentration ([1]; gavage 20 mg/kg, 0.5 h, average): 445 ng/mL | Plasma concentration ([1]; gavage 20 mg/kg, 0.5 h, individual animals): 289 ng/mL and 494 ng/mL and 553 ng/mL | Plasma concentration ([1]; gavage 20 mg/kg, 1.0 h, average): 420 ng/mL | Plasma concentration ([1]; gavage 20 mg/kg, 1.0 h, individual animals): 230 ng/mL and 455 ng/mL and 575 ng/mL | Plasma concentration ([1]; gavage 20 mg/kg, 2.0 h, average): 345 ng/mL | Plasma concentration ([1]; gavage 20 mg/kg, 2.0 h, individual animals): 218 ng/mL and 326 ng/mL and 492 ng/mL | Plasma concentration ([1]; gavage 20 mg/kg, 3.0 h, average): 289 ng/mL | Plasma concentration ([1]; gavage 20 mg/kg, 3.0 h, individual animals): 231 ng/mL and 207 ng/mL and 431 ng/mL | Plasma concentration ([1]; gavage 20 mg/kg, 5.0 h, average): 266 ng/mL | Plasma concentration ([1]; gavage 20 mg/kg, 5.0 h, individual animals): 233 ng/mL and 236 ng/mL and 330 ng/mL | Plasma concentration ([1]; gavage 20 mg/kg, 7.0 h, average): 122 ng/mL | Plasma concentration ([1]; gavage 20 mg/kg, 7.0 h, individual animals): 169 ng/mL and 80.3 ng/mL and 118 ng/mL | Plasma concentration ([1]; gavage 20 mg/kg, 9.0 h, average): 82.2 ng/mL | Plasma concentration ([1]; gavage 20 mg/kg, 9.0 h, individual animals): 91.9 ng/mL and 41.3 ng/mL and 113 ng/mL | Plasma concentration ([1]; gavage 20 mg/kg, 24.0 h, average): 4.28 ng/mL | Plasma concentration ([1]; gavage 20 mg/kg, 24.0 h, individual animals): 9.67 ng/mL and 1.26 ng/mL and 1.90 ng/mL | AUC0-t ([1]; gavage 20 mg/kg, average): 2867 ± 798 ng·h/mL and 2867 ng·h/mL | AUC0-∞ ([1]; gavage 20 mg/kg, average): 2891 ng·h/mL | Cmax ([1]; gavage 20 mg/kg, average): 453 ± 147 ng/mL and 453 ng/mL | MRT ([1]; gavage 20 mg/kg, average): 5.04 h | Tmax ([1]; gavage 20 mg/kg, average): 0.67 ± 0.29 h and 0.67 h | t1/2 ([1]; gavage 20 mg/kg, average): 3.26 ± 0.82 h and 3.26 h | AUC0-t [1, 2]: 3771 ng·h/mL and 2570 ng·h/mL and 2260 ng·h/mL | AUC0-∞ [1, 2]: 3779 ng·h/mL and 2629 ng·h/mL and 2265 ng·h/mL | Cmax [1, 2]: 575 ng/mL and 289 ng/mL and 494 ng/mL | MRT [1, 2]: 4.67 h and 6.45 h and 4.00 h | Tmax [1, 2]: 1.00 h and 0.50 h (2×) | t1/2 [1, 2]: 2.70 h and 4.20 h and 2.89 h | Plasma concentration ([1]; intravenous injection 10 mg/kg, 0.083 h, average): 4194 ng/mL | Plasma concentration ([1]; intravenous injection 10 mg/kg, 0.083 h, individual animals): 4576 ng/mL and 4169 ng/mL and 3837 ng/mL | Plasma concentration ([1]; intravenous injection 10 mg/kg, 0.25 h, average): 2883 ng/mL | Plasma concentration ([1]; intravenous injection 10 mg/kg, 0.25 h, individual animals): 3010 ng/mL and 2766 ng/mL and 2874 ng/mL | Plasma concentration ([1]; intravenous injection 10 mg/kg, 0.5 h, average): 1942 ng/mL | Plasma concentration ([1]; intravenous injection 10 mg/kg, 0.5 h, individual animals): 2055 ng/mL and 1788 ng/mL and 1984 ng/mL | Plasma concentration ([1]; intravenous injection 10 mg/kg, 1.0 h, average): 1207 ng/mL | Plasma concentration ([1]; intravenous injection 10 mg/kg, 1.0 h, individual animals): 1211 ng/mL and 1047 ng/mL and 1365 ng/mL | Plasma concentration ([1]; intravenous injection 10 mg/kg, 2.0 h, average): 571 ng/mL | Plasma concentration ([1]; intravenous injection 10 mg/kg, 2.0 h, individual animals): 590 ng/mL and 527 ng/mL and 596 ng/mL | Plasma concentration ([1]; intravenous injection 10 mg/kg, 3.0 h, average): 255 ng/mL | Plasma concentration ([1]; intravenous injection 10 mg/kg, 3.0 h, individual animals): 228 ng/mL and 294 ng/mL and 243 ng/mL | Plasma concentration ([1]; intravenous injection 10 mg/kg, 5.0 h, average): 75.3 ng/mL | Plasma concentration ([1]; intravenous injection 10 mg/kg, 5.0 h, individual animals): 65.0 ng/mL and 83.7 ng/mL and 77.2 ng/mL | Plasma concentration ([1]; intravenous injection 10 mg/kg, 7.0 h, average): 20.7 ng/mL | Plasma concentration ([1]; intravenous injection 10 mg/kg, 7.0 h, individual animals): 19.2 ng/mL and 21.1 ng/mL and 21.7 ng/mL | Plasma concentration ([1]; intravenous injection 10 mg/kg, 9.0 h, average): 8.00 ng/mL | Plasma concentration ([1]; intravenous injection 10 mg/kg, 9.0 h, individual animals): 7.31 ng/mL and 9.26 ng/mL and 7.41 ng/mL | Plasma concentration ([1]; intravenous injection 10 mg/kg, 24.0 h, average): 1.76 ng/mL | Plasma concentration ([1]; intravenous injection 10 mg/kg, 24.0 h, individual animals): 2.26 ng/mL and 1.61 ng/mL and 1.41 ng/mL | AUC0-t [1, 3]: 4196 ± 141 ng·h/mL and 4196 ng·h/mL | AUC0-∞ [1, 3]: 4210 ng·h/mL | CLz (plasma clearance rate CL) [1, 3]: 39.7 ± 1.3 mL/min/kg and 39.7 mL/min/kg | MRT [1, 3]: 1.47 h | Vss (steady state distribution volume) [1, 3]: 3.49 ± 0.24 L/kg and 3.49 L/kg | t1/2 [1, 3]: 5.44 ± 0.85 h and 5.44 h | AUC0-t [1, 4]: 4262 ng·h/mL and 4292 ng·h/mL and 4034 ng·h/mL | AUC0-∞ [1, 4]: 4272 ng·h/mL and 4313 ng·h/mL and 4046 ng·h/mL | CLz [1, 4]: 39 mL/min/kg and 38.7 mL/min/kg and 41.2 mL/min/kg | MRT [1, 4]: 1.42 h and 1.46 h and 1.53 h | Vss [1, 4]: 3.33 L/kg and 3.38 L/kg and 3.78 L/kg | t1/2 [1, 4]: 4.88 h and 6.42 h and 5.01 h
